Molecules are shown by their SMILES.

Broadly, the melting point is the temperature, or range, at which the solid turns liquid. For the compound `CCCCCCCC/C=C/CCc1cc(O)c(O)cc1O` [Eriopodol C, (E)-5-(dodec-3′-enyl)benzene-1,2,4-triol], the melting point was 138.5 °C.

These data come from article PMC6770071, “XIAP as a Target of New Small Organic Natural Molecules Inducing Human Cancer Cell Death” (Cancers, 2019).
